Where a name gives a salt, the structure may show the parent alone.
How the values were obtained:
[1] = tested on: maximal electroshock seizures; experiment: Maximum Electroshock Seizure (MES) test, mice; type: in vivo; conditions: for MES, No. of protected animals/No. of used animals: mice, time 0.5 h
Description: (§1) In order to define anticonvulsant activity, screening tests were performed, using animal models of seizures. […] Each substance (after dissolving in methylcellulose) was normally tested in doses 30, 100, and 300 mg/kg body weight (b.w.) (mice) or in 30 and 50 mg/kg b.w. (rats) in two possible routes of administration: intraperitoneal (i.p.) or oral (p.o.). Appropriate tests were performed 0.5 and 4 h after administration of the compound. […] (mice) the tests were also performed in doses 10 and 3 mg/kg b.w.
Maximum Electroshock Seizure (MES) test is an electric test, verifying activity towards generalized tonic-clonic seizures (grand mal epilepsy). […] Its procedure consists in administration to an animal a mentioned dose, and after 0.5 or 4 h attaching corneal electrodes (after anesthetic eye-drops: 0.5% tetracaine hydrochloride in 0.9% NaCl) and turning on electric current (60 Hz, 0.2 s, 50 mA (mice) or 150 mA (rats)). […] Normally, in the dose 30 mg/kg b.w. the test is done in 1 mouse after 0.5 or 4 h, in the dose 100 mg/kg b.w.—in 3 mice, and in the dose 300 mg/kg b.w.—in 1 mouse.

neurotoxicity (rotarod) = experiment: Neurotoxicity test (TOX), rotarod, mice; type: in vivo
Description: as §1
It is performed with use of rotarod test. The animal is placed on a plastic rod (1 inch in diameter), rotating 6 rpm. The rod is placed on a level discouraging the animal to jump off. […] Neurotoxicity is stated if the animal cannot stay on the rod for 1 min. in any of 3 trials. Normally the test is performed in dose 30 mg/kg b.w. in 4 mice (0.5 h) and in 2 mice (4 h), in the dose 100 mg/kg b.w. in 8 mice (0.5 h) and in 4 mice (4 h) and in the dose 300 mg/kg b.w. in 4 mice (0.5 h) and 2 mice (4 h).

[2] = mice, dose 300 mg/kg b.w., time 4 h
[3] = Mus musculus, 0.5 h, read-out: MES, No. of protected animals/No. of used animals
[4] = mice, dose 30 mg/kg b.w., time 0.5 h
[5] = mice, dose 300 mg/kg b.w., time 0.5 h
[6] = mice, dose 100 mg/kg b.w., time 0.5 h

Row | Compound | MES, No. of protected animals/No. of used animals ([1]; dose 100 mg/kg b.w.) | TOX, No. of animals exhibiting motor impairment/no. of used animals (neurotoxicity (rotarod); mouse, in vivo, 300 mg/kg) | TOX, No. of animals exhibiting motor impairment/no. of used animals (neurotoxicity (rotarod); mouse, in vivo, 100 mg/kg) | MES, No. of protected animals/No. of used animals ([1]; dose 30 mg/kg b.w.) | TOX, No. of animals exhibiting motor impairment/no. of used animals (neurotoxicity (rotarod); [5]) | TOX, No. of animals exhibiting motor impairment/no. of used animals (neurotoxicity (rotarod); [6]) | further results
1 | Cc1ccc(C)c(OCCNC(C)CO)c1 (stereo not drawn) [Compound 6, R,S-2N-[(2,5-dimethylphenoxy)ethyl]amino-1-propanol] | 3/3 | 4/4 |  |  |  |  | MES, No. of protected animals/No. of used animals ([1]; dose 300 mg/kg b.w.): 1/1
2 | CCC(O)CNCCOc1cc(C)ccc1C (stereo not drawn) [Compound 7, R,S-1N-[(2,5-dimethylphenoxy)ethyl]amino-2-butanol] | 3/3 | 4/4 | 8/8 |  |  |  | MES, No. of protected animals/No. of used animals ([1]; dose 300 mg/kg b.w.): 1/1
3 | CCC(CO)NCCOc1cc(C)ccc1C (stereo not drawn) [Compound 8, R,S-2N-[(2,5-dimethylphenoxy)ethyl]amino-1-butanol] | 3/3 | 4/4 | 8/8 |  |  |  | 
4 | Cc1cccc(C)c1OCCNC(C)CO.Cl (stereo not drawn) [Compound 11a, R,S-2N-[(2,6-dimethylphenoxy)ethyl]amino-1-propanol hydrochloride] | 1/1 | 4/4 | 8/8 | 1/1 |  |  | TOX, No. of animals exhibiting motor impairment/no. of used animals (neurotoxicity (rotarod); mouse, in vivo, 30 mg/kg): 3/4
5 | Cc1cccc(C)c1OCCN[C@H](C)CO [Compound 12a, R-(−)-2N-[(2,6-dimethylphenoxy)ethyl]amino-1-propanol hydrochloride] |  |  |  |  |  |  | MES, No. of protected animals/No. of used animals ([1]; dose 100 mg/kg b.w., hydrochloride, 100 mg/kg): 3/3; TOX, No. of animals exhibiting motor impairment/no. of used animals (neurotoxicity (rotarod); [2]): 1/1
6 | Cc1cccc(C)c1OCCN[C@@H](C)CO.Cl [Compound 13a, S-(+)-2N-[(2,6-dimethylphenoxy)ethyl]amino-1-propanol hydrochloride] | 3/3 | 4/4 | 8/8 | 1/1 |  |  | 
7 | Cc1cccc(C)c1OCCNC(C)(C)CCO [Compound 15, 3N-[(2,6-dimethylphenoxy)ethyl]amino-3-methyl-1-butanol hydrochloride] |  |  |  |  | 7/8 |  | responders at 10 mg/kg [1, 3]: 100%; responders at 300 mg/kg [1, 3]: 100%; TOX, No. of animals exhibiting motor impairment/no. of used animals (neurotoxicity (rotarod); mice, dose 10 mg/kg b.w., time 0.5 h): 7/8; TOX, No. of animals exhibiting motor impairment/no. of used animals (neurotoxicity (rotarod); [4]): 4/4
8 | Cc1cccc(C)c1OCCN[C@H](CO)C(C)C [Compound 16, L-2N-[(2,6-dimethylphenoxy)ethyl]amino-3-methyl-1-butanol hydrochloride] |  |  |  |  | 4/4 | 7/8 | responders at 100 mg/kg [1, 3]: 100%
9 | Cc1cccc(C)c1OCCNCCCCCO [Compound 17, 5N-[(2,6-dimethylphenoxy)ethyl]amino-1-pentanol hydrochloride] |  |  |  |  | 4/4 | 7/8 | responders at 100 mg/kg [1, 3]: 100%; TOX, No. of animals exhibiting motor impairment/no. of used animals (neurotoxicity (rotarod); [2]): 1/1
10 | Cc1cccc(C)c1OCCNCC(O)c1ccccc1 (stereo not drawn) [Compound 19, R,S-2N-[(2,6-dimethylphenoxy)ethyl]amino-1-phenylethanol] | 3/3 |  |  | 1/1 | 4/4 | 8/8 | TOX, No. of animals exhibiting motor impairment/no. of used animals (neurotoxicity (rotarod); [4]): 1/4
11 | Cc1cccc(C)c1OCCNC[C@@H](O)c1ccccc1 [Compound 21, S-(+)-2N-[(2,6-dimethylphenoxy)ethyl]amino-1-phenylethanol] | 3/3 |  |  | 1/1 | 4/4 | 7/8 | 
12 | Cc1cccc(Cl)c1OCCNC(C)CO (stereo not drawn) [Compound 24, R,S-2N-[(2-chlor-6-methylphenoxy)ethyl]amino-1-propanol] | 3/3 |  |  |  | 4/4 | 5/8 | 

From patent US8633251B2, “Derivatives of aminoalkanols, method of obtaining of aminoalkanols and their use” (Uniwersytet Jagiellonski, priority 2008, dated 2014)
